Results reported in US7211685B2, “Calcium receptor antagonists” (Japan Tobacco Inc., priority 2000, dated 2007).
Counter-ions that a name gives are not always drawn.

Experiments:
[1] = molecular target: T1, human calcium receptor (Homo sapiens, UniProt P41180); assay: Evaluation of antagonistic action on calcium receptor using reporter gene (luciferase); type: cell-based
T1 construct: expressed in transfected cells; host or cells: cell strain derived from rat adrenal
T1 sequence (P41180 20-1078): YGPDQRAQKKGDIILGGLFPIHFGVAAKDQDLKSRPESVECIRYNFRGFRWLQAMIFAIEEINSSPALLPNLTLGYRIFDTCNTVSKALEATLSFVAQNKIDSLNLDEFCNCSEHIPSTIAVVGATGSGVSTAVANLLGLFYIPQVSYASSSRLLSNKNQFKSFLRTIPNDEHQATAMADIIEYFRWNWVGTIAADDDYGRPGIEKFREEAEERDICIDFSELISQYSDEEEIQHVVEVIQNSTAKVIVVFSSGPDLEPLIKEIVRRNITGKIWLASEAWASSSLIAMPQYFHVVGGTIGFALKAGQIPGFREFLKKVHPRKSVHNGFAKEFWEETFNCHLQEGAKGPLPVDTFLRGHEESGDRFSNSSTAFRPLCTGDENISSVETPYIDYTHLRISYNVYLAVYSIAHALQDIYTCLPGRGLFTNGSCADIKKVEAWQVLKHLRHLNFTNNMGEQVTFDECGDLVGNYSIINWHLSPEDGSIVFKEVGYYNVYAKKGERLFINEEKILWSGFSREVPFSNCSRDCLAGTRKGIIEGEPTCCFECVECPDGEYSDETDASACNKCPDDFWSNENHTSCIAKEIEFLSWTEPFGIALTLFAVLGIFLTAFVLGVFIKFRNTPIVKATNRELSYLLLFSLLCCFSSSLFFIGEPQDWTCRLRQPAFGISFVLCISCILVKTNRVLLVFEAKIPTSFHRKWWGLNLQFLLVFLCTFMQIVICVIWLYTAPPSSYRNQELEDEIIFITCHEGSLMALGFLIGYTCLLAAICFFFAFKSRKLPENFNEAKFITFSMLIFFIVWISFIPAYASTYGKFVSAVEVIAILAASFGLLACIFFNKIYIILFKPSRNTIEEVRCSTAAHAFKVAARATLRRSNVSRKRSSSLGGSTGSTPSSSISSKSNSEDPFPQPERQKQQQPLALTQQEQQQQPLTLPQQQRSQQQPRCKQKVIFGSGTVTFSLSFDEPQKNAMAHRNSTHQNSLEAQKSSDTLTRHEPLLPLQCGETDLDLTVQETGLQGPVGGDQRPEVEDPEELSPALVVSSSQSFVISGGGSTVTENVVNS
Procedure: Evaluation of Antagonistic Action on Calcium Receptor Using Reporter Gene
Luciferase cDNA and human calcium receptor cDNA were transfected into a cell strain derived from rat adrenal and the transformed cells were cultured overnight in a medium (F12 medium containing 0.5% dialyzed horse serum and 0.25% dialyzed bovine fetal serum). The next day, a dimethyl sulfoxide solution containing a test compound at 0.01–100 mM was diluted 100-fold with the medium and added to the test compound group at 10 μl per well. A medium containing 50 mM calcium chloride was added to the control group at 10 μl per well, such that the final calcium concentration of the medium became 5 mM. A medium alone was added to the blank group. After culture for 4 hr, luciferase substrate (PicaGene LT-2.0, TOYO INK) was added and the luciferase activity was measured with a photoluminometer. The inhibitory rate (%) was calculated from the obtained measured values according to the following formula.
Based on the results, the concentration (IC50) showing 50% inhibitory rate was determined.

[2] = tested on: PTH secretion; assay: PTH secretion promoting action, oral administration to male SD rats, serum PTH by rat PTH (1-84) ELISA; type: in vivo; details: for serum PTH concentration, 30 min later / serum PTH concentration, 240 min later / serum PTH concentration, 120 min later: male SD rats, oral, mean ± S.E.
Procedure: (§1) PTH Secretion Promoting Action
(§2) The test compound was orally administered to 6 to 9-week-old male SD rats (Charles River Japan, Inc.) fasted for 20 hr, using a solvent (5% ethanol, 0.5% aqueous methyl cellulose solution) at a dose of 30 mg/5 ml/kg and 100 mg/5 ml/kg. A solvent alone was orally administered to the control group at a dose of 5 ml/kg. The blood was drawn from the tail vein immediately before and 0.5, 1, 2, 4, 6 hr after the administration of the test compound, and sera were obtained. The serum PTH concentration was measured using rat PTH (1-84) ELISA kit (Nohon Medi-Physics). The results of the serum PTH concentration before and 30 min and 4 hr after the administration of the test compound are shown in Table 24, and the results of the serum PTH concentration before and 30 min and 2 hr after the administration of the test compound of the 30 mg/5 ml/kg administration group are shown in Table 25.
In FIG. 1, FIG. 2 and FIG. 3, the time-course changes of the serum PTH concentration at the dose (30 mg/kg) of Example 22, Example 23 and Example 24 are shown.

[3] = tested on: PTH secretion; assay: PTH secretion promoting action, oral administration to female Fisher rats, serum PTH by rat PTH (1-84) ELISA; type: in vivo; details: 30 mg/5 ml/kg, mean ± S.E.
Procedure: as §1
as §2, with “4” for “6”, “6-week-old female Fisher” for “9-week-old male SD”, “30” for “30 mg/5 ml/kg and 100”, “4” for “4, 6”, “26.” for “24, and the results of the serum PTH concentration before and 30 min and 2 hr after the administration of the test compound of the 30 mg/5 ml/kg administration group are shown in Table 25.”

[4] = tested on: PTH release; details: OVX rat, cited from earlier work
[5] = OVX rat; cited from earlier work
[6] = tested on: osteoblast and osteoclast; details: cited from earlier work
[7] = 100 mg/kg administration group (lower line)
[8] = Table 25, 30 mg/5 ml/kg administration group

Compound | IC50 ([1]; Table 24, final calcium 5 mM) [µM] | IC50 ([1]; Table 25, final calcium 5 mM) [µM] | serum PTH concentration, 30 min later [2, 8] [pg/mL] | serum PTH concentration, 120 min later [2, 8] [pg/mL] | also measured
CC(C)(Cc1ccc2ccccc2c1)NC[C@@H](O)COCc1ccccc1 [Comparative Example 1, reference compound] | 0.56 |  |  |  | serum PTH concentration, 30 min later [2, 7]: 139.0 ± 18.8 pg/mL; serum PTH concentration, 240 min later [2, 7]: 78.9 ± 12.3 pg/mL; blood PTH concentration at 30 min relative to that before administration ([2]; 100 mg/kg, 30 min after administration): 1.3 times
COc1ccccc1C(OC[C@H](O)CNC(C)(C)Cc1ccc2ccccc2c1)C1CC1 (stereo partly drawn) [Example 1, (2R)-1-[1,1-Dimethyl-2-(naphthalen-2-yl)ethylamino]-3-[(cyclopropyl)(2-methoxyphenyl)methoxy]propan-2-ol] | 0.041 |  |  |  | serum PTH concentration, 30 min later [2, 7]: 160.0 ± 13.8 pg/mL; serum PTH concentration, 240 min later [2, 7]: 58.3 ± 7.3 pg/mL
Cc1ccccc1C(OC[C@H](O)CNC(C)(C)Cc1ccc2ccccc2c1)C1CC1 (stereo partly drawn) [Example 2, (2R)-1-[1,1-Dimethyl-2-(naphthalen-2-yl)ethylamino]-3-[(cyclopropyl) (2-methylphenyl)methoxy]propan-2-ol] | 0.027 |  |  |  | serum PTH concentration, 30 min later [2, 7]: 154.8 ± 17.1 pg/mL; serum PTH concentration, 240 min later [2, 7]: 85.8 ± 17.3 pg/mL
COc1ccccc1C(C)OC[C@H](O)CNC(C)(C)Cc1ccc2ccccc2c1 (stereo partly drawn) [Example 5, (2R)-1-[1,1-Dimethyl-2-(naphthalen-2-yl)ethylamino]-3-[1-(2-methoxyphenyl)ethoxy]propan-2-ol hydrochloride] | 0.07 |  |  |  | 
COc1ccccc1[C@@H](C)OC[C@H](O)CNC(C)(C)Cc1ccc2ccccc2c1 [Example 22, (2R)-1-[1,1-Dimethyl-2-(naphthalen-2-yl)ethylamino]-3-[(1R)-1-(2-methoxyphenyl)ethoxy]propan-2-ol hydrochloride] | 0.059 |  |  |  | 
Cc1ccccc1[C@H](OC[C@H](O)CNC(C)(C)Cc1ccc2ccccc2c1)C1CC1 [Example 23, (2R)-1-[1,1-Dimethyl-2-(naphthalen-2-yl)ethylamino]-3-[(1R)-(cyclopropyl)(2-methylphenyl)methoxy]propan-2-ol] | 0.027 |  |  |  | 
COc1ccccc1[C@H](OC[C@H](O)CNC(C)(C)Cc1ccc2ccccc2c1)C1CC1 [Example 24, (2R)-1-[1,1-Dimethyl-2-(naphthalen-2-yl)ethylamino]-3-[(1R)-(cyclopropyl)(2-methoxyphenyl)methoxy]propan-2-ol] | 0.022 |  |  |  | 
CC(C)(Cc1ccc2ccccc2c1)NC[C@@H](O)CO[C@@H](c1ccccc1CO)C1CC1 [Example 58, (2R)-1-[1,1-Dimethyl-2-(naphthalen-2-yl)ethylamino]-3-[(1R)-(cyclopropyl)[2-(hydroxymethyl)phenyl]methoxy]propan-2-ol Hemifumarate] |  |  |  |  | serum PTH concentration, 30 min later [3]: 644.4 ± 65.2 pg/mL; serum PTH concentration, 240 min later [3]: 394.1 ± 100.9 pg/mL; serum PTH concentration, before administration [3]: 179.2 ± 45.6 pg/mL
CC(C)(Cc1ccc2ccccc2c1)NC[C@@H](O)CO[C@H](c1ccccc1CO)C1CC1 [Example 59, (2R)-1-[1,1-Dimethyl-2-(naphthalen-2-yl)ethylamino]-3-[(1S)-(cyclopropyl)[2-(hydroxymethyl)phenyl]methoxy]propan-2-ol Hemifumarate] |  |  |  |  | serum PTH concentration, 30 min later [3]: 313.4 ± 103.3 pg/mL; serum PTH concentration, 240 min later [3]: 62.2 ± 10.3 pg/mL; serum PTH concentration, before administration [3]: 189.8 ± 90.9 pg/mL
Cc1ccccc1[C@H](OC[C@H](O)CNC(C)(C)Cc1ccc2ccccc2c1)C1CC1.O=C(O)/C=C/C(=O)O [Example 62] | 0.045 |  |  |  | serum PTH concentration, 30 min later [3]: 620.6 ± 34.2 pg/mL; serum PTH concentration, 240 min later [3]: 100.1 ± 11.7 pg/mL; serum PTH concentration, before administration [3]: 82.9 ± 14.5 pg/mL
CC(C)(Cc1ccc2ccccc2c1)NC[C@@H](O)COC(c1cccc(C(N)=O)c1)C1CC1 (stereo partly drawn) [Example 80] |  | 0.064 | 156.6 ± 15.3 | 76.1 ± 12.6 | 
CN(C)c1ccccc1C(OC[C@H](O)CNC(C)(C)Cc1ccc2ccccc2c1)C1CC1 (stereo partly drawn) [Example 82] |  | 0.051 | 121.9 ± 9.0 | 68.5 ± 11.4 | 
COc1ccc(CC(C)(C)NC[C@@H](O)CO[C@@H](c2ccccc2C)C2CC2)cc1C [Example 95] |  | 0.029 | 199.1 ± 25.8 | 80.4 ± 9.6 | 
Cc1ccsc1C(OC[C@H](O)CNC(C)(C)Cc1ccc2ccccc2c1)C1CC1 (stereo partly drawn) [Example 100] |  | 0.067 | 130.1 ± 53.7 | 49.3 ± 4.4 | 
CC(C)(Cc1ccc2ccccc2c1)NC[C@@H](O)COC(c1cccc(C#N)c1)C1CC1 (stereo partly drawn) [Example 105] |  | 0.049 | 115.4 ± 20.0 | 74.3 ± 12.1 | 
Cc1ccc(CC(C)(C)NC[C@@H](O)CO[C@@H](c2ccccc2C)C2CC2)cc1C [Example 111] |  | 0.024 | 236.3 ± 60.8 | 65.3 ± 6.4 | 
COc1ccc(CC(C)(C)NC[C@@H](O)CO[C@@H](c2ccccc2C)C2CC2)cc1C [Example 127] |  | 0.133 | 265.3 ± 22.3 | 75.2 ± 7.3 | 
CC(C)(Cc1ccc2ccccc2c1)NC[C@@H](O)COc1cccc(Cl)c1C#N [NPS-2143] |  |  |  |  | PTH secretion promoting action, time course (FIG. 5) ([2]; 30 mg/kg, rat): sustained secretion promoting action; PTH concentration in blood after 4 hr ([4]; NPS-2143 100 μmol/kg): about 140 pg/ml; PTH concentration in blood at 30 min ([4]; NPS-2143 100 μmol/kg): about 115 pg/ml; effect on bone ([4]; oral administration): no bone increase or decrease was found; concentration in blood of NPS-2143 after 24 hr [5]: not more than 10 ng/ml; concentration in blood of NPS-2143 at 8 hr after administration [5]: above 100 ng/ml; direct effect on osteoblast and osteoclast in vitro [6]: no direct effect
rat PTH (1-34): rat parathyroid hormone fragment (1-34) administered to OVX rat (AVSEIQLMHNLGKHLASVERMQWLRKKLQDVHNF; Parathyroid hormone; UniProt P04089 32-65, looked up, fragment) |  |  |  |  | PTH concentration in blood, peak in 30 min ([4]; rat PTH (1-34) 5 μg/kg): about 175 pg/ml; time to restore original PTH level in blood ([4]; rat PTH (1-34) 5 μg/kg): 2 h
